The NIST ThermoML archive (doi:10.1021/je900864n)
± gives the expanded uncertainty stated by the source.

How the values were obtained:
[1] = 101.33 kPa, Liquid
[2] = refractive index (Na D-line) (dimensionless); conditions: 101.33 kPa, Liquid, Standard Abbe refractometry
[3] = refractive index (other wavelength) (dimensionless); wn = mass fraction of the nth substance listed; conditions: 101 kPa, Liquid, Wavelength=632.8 nm, Standard Abbe refractometry
[4] = refractive index (other wavelength) (dimensionless); conditions: 101 kPa, Liquid, Standard Abbe refractometry

OCCCCO [1,4-butanediol]
Conditions	mass density [kg/m3]	refractive index
[1], 293.15 K	1016.37 ± 0.5	–
[1], 298.15 K	1013.04 ± 0.49	–
[1], 303.15 K	1009.96 ± 0.48	–
[1], 308.15 K	1006.75 ± 0.47	–
[1], 313.15 K	1003.55 ± 0.46	–
[1], 318.15 K	1000.72 ± 0.45	–
[2], 294.23 K	–	1.4447 ± 0.0005
[2], 297.67 K	–	1.4437 ± 0.0005
[2], 300.86 K	–	1.4428 ± 0.0005
[2], 303.23 K	–	1.4422 ± 0.0005
[2], 306.21 K	–	1.4414 ± 0.0005
[2], 309.13 K	–	1.4406 ± 0.0005
[2], 313.69 K	–	1.4393 ± 0.0005

OCCCCO [1,4-butanediol] + CCCCn1cc[n+](C)c1.F[B-](F)(F)F
[3]
Conditions	refractive index
296.24 K, w2 = 0.894	1.4221 ± 0.0004
298.19 K, w2 = 0.894	1.4216 ± 0.0004
300.13 K, w2 = 0.894	1.4211 ± 0.0004
301.24 K, w2 = 0.786	1.4216 ± 0.0004
302.15 K, w2 = 0.894	1.4206 ± 0.0004
303.16 K, w2 = 0.786	1.4211 ± 0.0004
303.25 K, w2 = 0.686	1.4223 ± 0.0004
304.14 K, w2 = 0.894	1.42 ± 0.0004
304.22 K, w2 = 0.579	1.4237 ± 0.0004
304.24 K, w2 = 0.786	1.4208 ± 0.0004
305.26 K, w2 = 0.686	1.4218 ± 0.0004
306.24 K, w2 = 0.579	1.4231 ± 0.0004
306.25 K, w2 = 0.094	1.4367 ± 0.0004
306.69 K, w2 = 0.894	1.4194 ± 0.0004
306.7 K, w2 = 0.484	1.4247 ± 0.0004
307.2 K, w2 = 0.094	1.4364 ± 0.0004
307.21 K, w2 = 0.786	1.42 ± 0.0004
307.29 K, w2 = 0.686	1.4212 ± 0.0004
308.22 K, w2 = 0.484	1.4243 ± 0.0004
308.24 K, w2 = 0.094	1.4361 ± 0.0004
308.27 K, w2 = 0.579	1.4225 ± 0.0004
309.2 K, w2 = 0.686	1.4207 ± 0.0004
309.23 K, w2 = 0.094	1.4358 ± 0.0004
309.24 K, w2 = 0.786	1.4195 ± 0.0004
309.26 K, w2 = 0.381	1.4264 ± 0.0004
309.55 K, w2 = 0.19	1.4322 ± 0.0004
309.73 K, w2 = 0.484	1.4238 ± 0.0004
309.88 K, w2 = 0.286	1.4289 ± 0.0004
310.17 K, w2 = 0.094	1.4355 ± 0.0004
310.22 K, w2 = 0.579	1.422 ± 0.0004
310.64 K, w2 = 0.381	1.426 ± 0.0004
311.22 K, w2 = 0.286	1.4285 ± 0.0004
311.22 K, w2 = 0.686	1.4202 ± 0.0004
311.25 K, w2 = 0.19	1.4317 ± 0.0004
311.33 K, w2 = 0.484	1.4234 ± 0.0004
311.85 K, w2 = 0.786	1.4188 ± 0.0004
312.19 K, w2 = 0.579	1.4214 ± 0.0004
312.27 K, w2 = 0.094	1.4349 ± 0.0004
312.31 K, w2 = 0.381	1.4255 ± 0.0004
312.78 K, w2 = 0.19	1.4312 ± 0.0004
312.88 K, w2 = 0.484	1.4229 ± 0.0004
313 K, w2 = 0.286	1.4279 ± 0.0004
313.28 K, w2 = 0.686	1.4196 ± 0.0004
313.79 K, w2 = 0.381	1.4251 ± 0.0004
314.29 K, w2 = 0.19	1.4308 ± 0.0004
314.29 K, w2 = 0.579	1.4208 ± 0.0004
314.31 K, w2 = 0.484	1.4225 ± 0.0004
314.32 K, w2 = 0.094	1.4343 ± 0.0004
314.39 K, w2 = 0.286	1.4275 ± 0.0004
315.65 K, w2 = 0.381	1.4246 ± 0.0004
315.79 K, w2 = 0.286	1.4271 ± 0.0004
316.13 K, w2 = 0.19	1.4302 ± 0.0004
317.3 K, w2 = 0.19	1.4299 ± 0.0004
317.35 K, w2 = 0.286	1.4266 ± 0.0004
317.38 K, w2 = 0.381	1.4241 ± 0.0004

CCCCn1cc[n+](C)c1.F[B-](F)(F)F [1-butyl-3-methylimidazolium tetrafluoroborate]
[1]
Conditions	mass density [kg/m3]
293.15 K	1210.05 ± 1.2
298.15 K	1206.32 ± 1.2
303.15 K	1202.59 ± 1.2
308.15 K	1198.97 ± 1.2
313.15 K	1195.24 ± 1.1

[4], Wavelength=632.8 nm
Conditions	refractive index
286.91 K	1.4228 ± 0.0004
288.89 K	1.4223 ± 0.0004
290.92 K	1.4218 ± 0.0005
293.04 K	1.4212 ± 0.0005
295.03 K	1.4207 ± 0.0004
297.04 K	1.4202 ± 0.0004
299.02 K	1.4197 ± 0.0004
304.12 K	1.4184 ± 0.0004
309.02 K	1.4171 ± 0.0005
314.35 K	1.4157 ± 0.0004
318.92 K	1.4146 ± 0.0004

OCCCO [propan-1,3-diol]
[1]
Conditions	mass density [kg/m3]
293.15 K	1053.48 ± 0.26
298.15 K	1050.28 ± 0.26
303.15 K	1047.26 ± 0.25
308.15 K	1044.11 ± 0.25
313.15 K	1040.94 ± 0.24

[4], Wavelength=63.28 nm
Conditions	refractive index
287.46 K	1.4396 ± 0.0004
288.88 K	1.4392 ± 0.0004
290.94 K	1.4387 ± 0.0004
293.1 K	1.4381 ± 0.0004
295.16 K	1.4375 ± 0.0004
297.02 K	1.437 ± 0.0004
299.09 K	1.4365 ± 0.0004
301.21 K	1.4359 ± 0.0004

OCCCO [propan-1,3-diol] + CCCCn1cc[n+](C)c1.F[B-](F)(F)F
[3]
Conditions	refractive index
286.8 K, w2 = 0.698	1.424 ± 0.0005
286.81 K, w2 = 0.796	1.4233 ± 0.0005
287.24 K, w2 = 0.901	1.4228 ± 0.0005
288.87 K, w2 = 0.796	1.4228 ± 0.0005
288.88 K, w2 = 0.901	1.4224 ± 0.0005
289.37 K, w2 = 0.698	1.4234 ± 0.0005
290.78 K, w2 = 0.602	1.4239 ± 0.0005
290.86 K, w2 = 0.796	1.4223 ± 0.0005
291 K, w2 = 0.901	1.4219 ± 0.0005
291.2 K, w2 = 0.698	1.4229 ± 0.0005
292.89 K, w2 = 0.796	1.4218 ± 0.0005
292.95 K, w2 = 0.901	1.4214 ± 0.0005
293.29 K, w2 = 0.602	1.4232 ± 0.0005
293.3 K, w2 = 0.698	1.4223 ± 0.0005
294.94 K, w2 = 0.698	1.4219 ± 0.0005
294.99 K, w2 = 0.901	1.4209 ± 0.0005
295.08 K, w2 = 0.602	1.4227 ± 0.0005
295.86 K, w2 = 0.796	1.4211 ± 0.0005
296.02 K, w2 = 0.513	1.4235 ± 0.0007
296.98 K, w2 = 0.602	1.4222 ± 0.0005
297 K, w2 = 0.901	1.4204 ± 0.0005
297.16 K, w2 = 0.0947	1.4328 ± 0.0004
297.94 K, w2 = 0.698	1.4211 ± 0.0005
297.96 K, w2 = 0.796	1.4206 ± 0.0005
298.14 K, w2 = 0.513	1.4229 ± 0.0005
298.49 K, w2 = 0.0947	1.4325 ± 0.0004
298.98 K, w2 = 0.602	1.4217 ± 0.0005
299.51 K, w2 = 0.384	1.4245 ± 0.0005
299.54 K, w2 = 0.299	1.4263 ± 0.0005
299.6 K, w2 = 0.194	1.4289 ± 0.0006
300 K, w2 = 0.0947	1.4321 ± 0.0005
300 K, w2 = 0.513	1.4224 ± 0.0005
300 K, w2 = 0.901	1.4196 ± 0.0005
301.08 K, w2 = 0.194	1.4285 ± 0.0004
301.1 K, w2 = 0.602	1.4211 ± 0.0004
301.22 K, w2 = 0.384	1.424 ± 0.0005
301.4 K, w2 = 0.299	1.4258 ± 0.0005
301.52 K, w2 = 0.0947	1.4317 ± 0.0005
302.02 K, w2 = 0.513	1.4218 ± 0.0005
302.17 K, w2 = 0.194	1.4282 ± 0.0006
303.06 K, w2 = 0.0947	1.4313 ± 0.0004
303.53 K, w2 = 0.384	1.4234 ± 0.0005
303.55 K, w2 = 0.299	1.4252 ± 0.0005
304.01 K, w2 = 0.513	1.4212 ± 0.0005
304.13 K, w2 = 0.194	1.4276 ± 0.0005
304.93 K, w2 = 0.513	1.4209 ± 0.0005
305.12 K, w2 = 0.0947	1.4308 ± 0.0004
305.28 K, w2 = 0.384	1.4229 ± 0.0005
305.3 K, w2 = 0.299	1.4247 ± 0.0005
305.51 K, w2 = 0.194	1.4272 ± 0.0005
307.32 K, w2 = 0.194	1.4267 ± 0.0005
307.43 K, w2 = 0.299	1.4241 ± 0.0005
307.44 K, w2 = 0.384	1.4223 ± 0.0005
308.96 K, w2 = 0.384	1.4219 ± 0.0005
309.08 K, w2 = 0.299	1.4236 ± 0.0005
